Data on 18 molecules can be found in patent US6288091A, “Antiherpes virus compounds and methods for their preparation and use” (Boehringer Ingelheim Ltd., priority 1999, dated 2001).

SMILES strings stand for the structures.

The subject of experiment [1] is HCMV (strain AD169). In words: Inhibition of HCMV replication, plaque reduction assay (PRA, Hs-68 cells). It is filed as cell-based, Human Cytomegalovirus (HCMV). The following applies: read-out: PRA CMV EC50. Summed up:
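Hs-68 monolayers (80–90% confluent) were infected with ~50 PFU HCMV AD169 for 2 h at 37°, then given compound in DMEM/5% inactivated FBS, refreshed after 4 days and kept 4 more days. Plaques were counted after formaldehyde fixation and crystal violet staining. EC50 derives from percent plaque reduction versus untreated wells.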
A general note: Plaque reduction counts the foci of infection that form in a cell layer.

Experiment [2] has as its system HCMV (strain AD169). In words: Inhibition of HCMV replication, ELISA assay (Hs-68 cells). In kind it is cell-based, Human Cytomegalovirus (HCMV). Particulars: read-out: ELISA CMV EC50. Summed up: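 Hs-68 fibroblasts at 80–90% confluency infected with HCMV AD169 at MOI 0.01 PFU/cell for 2 h, washed, then cultured 8 days at 37 °C with test compound in DMEM/5% FBS. Late protein p28 detected by ELISA (mAb UL99, HRP/OPD, 450 nm); EC50 from % inhibition of replication.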
Background: In an ELISA, binding on a coated surface is turned into a signal by an enzyme label.

Another experiment concerns the target T1, HSV-1 helicase-primase (Human herpesvirus 1, UniProt P10189+P10236).
T1 construct: made in house; host or cells: Sf21 insect cells triply infected with recombinant baculoviruses (UL5, UL8, UL52)
In words: HSV-1 DNA-dependent ATPase assay (inhibition of HSV-1 helicase-primase). It is filed as biochemical. Summed up:
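Holoenzyme (UL5/UL8/UL52) expressed in baculovirus-infected Sf21 cells and purified, used at 3 μg/mL with 4 mM ATP and 25 μM primed M13 ssDNA in HEPES pH 7.5, 5.5 mM MgCl2, 3.3% DMSO. Incubated 20 min at 34°. Released phosphate read by malachite green at 650 nm, and activity taken from net absorbance with versus without inhibitor.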

Where [3] appears, read: Human betaherpesvirus 5, AD169, Hs68, Group 2 Table 2 entries.
Where [4] appears, read: Human betaherpesvirus 5, AD169, Hs68, Group 2 Table 1 entries.
[5] abbreviates: Human betaherpesvirus 5, AD169, Hs68, Group 1 Table 6 entries.
Where [6] appears, read: Human betaherpesvirus 5, AD169, Hs68, Group 1 Table 5 entries.

T1 sequence (P10192 whole entry): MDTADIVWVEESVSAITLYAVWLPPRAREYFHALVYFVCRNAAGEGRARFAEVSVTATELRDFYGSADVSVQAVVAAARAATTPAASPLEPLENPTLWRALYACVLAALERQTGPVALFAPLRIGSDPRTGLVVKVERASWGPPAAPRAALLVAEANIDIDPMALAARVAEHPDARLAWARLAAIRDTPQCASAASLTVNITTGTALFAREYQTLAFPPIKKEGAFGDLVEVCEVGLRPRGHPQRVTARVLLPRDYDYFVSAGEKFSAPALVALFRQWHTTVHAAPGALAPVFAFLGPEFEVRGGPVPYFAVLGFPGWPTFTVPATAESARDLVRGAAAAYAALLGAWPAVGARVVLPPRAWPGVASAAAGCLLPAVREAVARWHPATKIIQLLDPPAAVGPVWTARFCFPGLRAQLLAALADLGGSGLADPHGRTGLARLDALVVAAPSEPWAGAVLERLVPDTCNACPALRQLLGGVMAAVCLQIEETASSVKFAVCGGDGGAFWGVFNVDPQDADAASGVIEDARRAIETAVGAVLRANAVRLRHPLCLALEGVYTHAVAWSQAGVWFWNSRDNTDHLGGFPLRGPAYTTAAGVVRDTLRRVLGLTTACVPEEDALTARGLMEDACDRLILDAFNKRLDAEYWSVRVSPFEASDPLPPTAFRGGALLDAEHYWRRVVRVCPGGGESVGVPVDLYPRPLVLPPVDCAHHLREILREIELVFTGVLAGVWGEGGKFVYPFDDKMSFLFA
T1 sequence (P10236 whole entry): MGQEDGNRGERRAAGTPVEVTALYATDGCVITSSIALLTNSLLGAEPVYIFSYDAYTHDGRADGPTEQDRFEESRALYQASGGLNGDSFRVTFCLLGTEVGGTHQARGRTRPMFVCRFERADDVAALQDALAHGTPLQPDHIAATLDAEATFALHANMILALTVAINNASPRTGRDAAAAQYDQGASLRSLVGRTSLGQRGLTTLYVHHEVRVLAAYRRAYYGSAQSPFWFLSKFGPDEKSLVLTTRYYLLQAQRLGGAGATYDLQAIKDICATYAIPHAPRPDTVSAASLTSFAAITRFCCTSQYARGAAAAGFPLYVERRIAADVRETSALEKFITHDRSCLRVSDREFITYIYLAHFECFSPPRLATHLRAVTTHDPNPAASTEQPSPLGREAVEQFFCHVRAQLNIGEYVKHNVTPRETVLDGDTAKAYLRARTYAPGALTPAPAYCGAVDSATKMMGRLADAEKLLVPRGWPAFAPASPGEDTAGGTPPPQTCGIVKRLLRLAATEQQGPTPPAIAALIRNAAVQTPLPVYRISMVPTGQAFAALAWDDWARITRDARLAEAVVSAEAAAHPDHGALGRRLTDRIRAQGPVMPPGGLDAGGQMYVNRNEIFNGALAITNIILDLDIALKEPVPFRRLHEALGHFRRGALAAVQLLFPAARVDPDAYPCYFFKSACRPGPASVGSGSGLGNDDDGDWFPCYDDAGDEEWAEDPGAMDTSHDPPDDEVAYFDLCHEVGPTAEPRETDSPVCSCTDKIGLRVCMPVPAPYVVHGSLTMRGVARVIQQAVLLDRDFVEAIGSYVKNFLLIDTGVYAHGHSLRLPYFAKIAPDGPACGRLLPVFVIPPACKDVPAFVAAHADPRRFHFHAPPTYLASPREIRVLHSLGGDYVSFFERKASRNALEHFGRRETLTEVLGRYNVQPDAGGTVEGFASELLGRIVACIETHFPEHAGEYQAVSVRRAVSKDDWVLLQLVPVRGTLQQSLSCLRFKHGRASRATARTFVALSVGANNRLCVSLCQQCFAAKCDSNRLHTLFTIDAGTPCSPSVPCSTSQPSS
T1 sequence (P10189 whole entry): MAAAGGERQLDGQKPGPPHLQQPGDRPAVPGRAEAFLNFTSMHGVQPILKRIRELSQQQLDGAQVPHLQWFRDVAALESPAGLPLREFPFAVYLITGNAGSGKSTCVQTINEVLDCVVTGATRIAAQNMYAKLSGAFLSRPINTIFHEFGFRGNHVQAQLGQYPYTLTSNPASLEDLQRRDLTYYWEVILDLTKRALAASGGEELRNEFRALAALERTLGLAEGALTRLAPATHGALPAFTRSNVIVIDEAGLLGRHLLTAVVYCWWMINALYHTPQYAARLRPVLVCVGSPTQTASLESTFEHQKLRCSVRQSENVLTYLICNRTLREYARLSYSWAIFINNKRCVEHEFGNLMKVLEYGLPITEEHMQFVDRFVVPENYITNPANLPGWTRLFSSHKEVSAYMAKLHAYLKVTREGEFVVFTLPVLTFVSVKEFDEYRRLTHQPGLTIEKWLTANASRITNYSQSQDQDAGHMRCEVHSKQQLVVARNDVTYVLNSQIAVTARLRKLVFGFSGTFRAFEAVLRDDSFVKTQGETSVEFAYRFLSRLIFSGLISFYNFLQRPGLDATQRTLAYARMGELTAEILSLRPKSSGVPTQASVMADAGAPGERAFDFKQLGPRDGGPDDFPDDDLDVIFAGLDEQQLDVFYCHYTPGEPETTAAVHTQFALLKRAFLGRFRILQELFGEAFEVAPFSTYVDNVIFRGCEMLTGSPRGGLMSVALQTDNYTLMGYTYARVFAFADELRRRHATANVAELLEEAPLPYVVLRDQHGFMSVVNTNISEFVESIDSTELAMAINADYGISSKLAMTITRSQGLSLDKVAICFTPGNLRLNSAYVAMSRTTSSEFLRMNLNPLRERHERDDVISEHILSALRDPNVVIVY

The EC50 is the concentration that produces a half-maximal response. By IC50 is commonly meant the point on the concentration scale where inhibition reaches its midpoint. Read a high IC50 as weaker potency. As to `CCCCN(CCCC)C(=O)C(=O)Nc1ccc(-c2csc(N)n2)cc1` [Example 1, N-{4-(2-Amino-4-thiazolyl)phenyl}-N',N'-dibutylethanediamide], the values for the 50% effective concentration (EC50) in the experiment on HCMV (strain AD169) [1] (setting [3]) and in the experiment on HCMV (strain AD169) [2] (setting [3]) were above 4 µM and 2.6 µM, respectively. The molecule further registered a 50% inhibitory concentration (IC50) at HSV-1 helicase-primase (Group 2 Table 2 entries (A = C(O))) of 7 µM.

Regarding `CCCCN(CCCC)C(=O)Nc1ccc(-c2csc(N)n2)cc1` [Example 1, N-{4-(2-Amino-4-thiazolyl)phenyl}-N,N-dibutylurea], the 50% effective concentration (EC50) turned out to be 37 µM with HCMV (strain AD169) [1] (setting [4]) and 4.1 µM with HCMV (strain AD169) [2] (setting [4]). This molecule also returned a 50% inhibitory concentration (IC50) on HSV-1 helicase-primase (Group 2 Table 1 entries) of 4.2 µM.

As for `Nc1nc(-c2ccc(NC(=O)[C@@H]3CCC(=O)N3Cc3ccccc3)cc2)cs1` [Example 2], the EC50 in the experiment on HCMV (strain AD169) [1] (setting [5]) is 50 µM; in the experiment with HCMV (strain AD169) [2] (setting [5]), 22 µM. At HSV-1 helicase-primase (Group 1 Table 6 entries), this molecule returned an IC50 of 6.2 µM.

For `Nc1nc(-c2ccc(NC(=O)[C@H]3CCC(=O)N3CC3CCCCC3)cc2)cs1` [Example 3], the 50% effective concentration (EC50) in the experiment with HCMV (strain AD169) [1] (setting [5]) is 45 µM; with HCMV (strain AD169) [2] (setting [5]), 1.4 µM. The same molecule showed an IC50 at HSV-1 helicase-primase (Group 1 Table 6 entries) of 6.2 µM.

As to `CN(CCc1ccccn1)C(=O)Nc1ccc(-c2csc(N)n2)cc1` [Example 4], the concentration for a half-maximal effect (EC50) was above 144 µM with HCMV (strain AD169) [1] (setting [4]) and 126 µM in the experiment on HCMV (strain AD169) [2] (setting [4]). Also, on HSV-1 helicase-primase (Group 2 Table 1 entries), the half-inhibitory concentration (IC50) was determined as 3.7 µM.

For `Nc1nc(-c2ccc(NC(=O)[C@@H]3CCCN3C(=O)c3ccccc3)cc2)cs1` [Example 5], the concentration for a half-maximal effect (EC50) with HCMV (strain AD169) [1] (setting [5]) is above 89 µM; in the experiment with HCMV (strain AD169) [2] (setting [5]), 63 µM. Half-maximal inhibition at HSV-1 helicase-primase (Group 1 Table 6 entries) (IC50) required 1.6 µM.

Take `Nc1nc(-c2ccc(NC(=O)[C@@H]3CCCN3C(=O)C3CCCCC3)cc2)cs1` [Example 6]: the results for the EC50 with HCMV (strain AD169) [1] (setting [5]) and in the experiment on HCMV (strain AD169) [2] (setting [5]) were 22 µM and 28 µM, respectively. Also, at HSV-1 helicase-primase (Group 1 Table 6 entries), the midpoint of inhibition, the IC50, lay at 0.052 µM.

For `CC(C)(C)OC(=O)N1CCC[C@@H]1C(=O)Nc1ccc(-c2csc(N)n2)cc1` [Example 8], the values for the EC50 with HCMV (strain AD169) [1] (setting [5]) and with HCMV (strain AD169) [2] (setting [5]) were above 83 µM and 11 µM, respectively. At HSV-1 helicase-primase (Group 1 Table 6 entries), this molecule registered an IC50 of 7.5 µM.

On to `Nc1nc(-c2ccc(NC(=O)[C@H]3CCCN3C(=O)c3ccccc3)cc2)cs1` [Example 9], for which the values for the EC50 with HCMV (strain AD169) [1] (setting [5]) and in the experiment with HCMV (strain AD169) [2] (setting [5]) were above 88 µM and 0.3 µM, respectively. Also, the half-maximal inhibitory concentration (IC50) against HSV-1 helicase-primase (Group 1 Table 6 entries) worked out at 1.6 µM.

For `CN(C(=O)OC(C)(C)C)[C@@H](Cc1ccccc1)C(=O)Nc1ccc(-c2csc(N)n2)cc1` [Example 10], the half-maximal effective concentration (EC50) in the experiment on HCMV (strain AD169) [1] (setting [6]) came to 12 µM; in the experiment with HCMV (strain AD169) [2] (setting [6]), 2.5 µM. For the same molecule, the IC50 against HSV-1 helicase-primase (Group 1 Table 5 entries) was found to be 0.09 µM.

As for `Nc1nc(-c2ccc(NC(=O)[C@H]3CCCN3C(=O)C3CCCCC3)cc2)cs1` [Example 10], the values for the 50% effective concentration (EC50) with HCMV (strain AD169) [1] (setting [5]) and in the experiment on HCMV (strain AD169) [2] (setting [5]) were 48 µM and 0.6 µM, respectively. The molecule further gave an IC50 at HSV-1 helicase-primase (Group 1 Table 6 entries) of 0.13 µM.

Consider `CCCC(CCC)NC(=O)Nc1ccc(-c2csc(N)n2)cc1` [Example 11], for which the EC50 in the experiment on HCMV (strain AD169) [1] (setting [4]) worked out at 13 µM; in the experiment on HCMV (strain AD169) [2] (setting [4]), 1.3 µM. Moreover, on HSV-1 helicase-primase (Group 2 Table 1 entries), the IC50 was determined as 17 µM.

As to `Nc1nc(-c2ccc(NC(=O)[C@H](Cc3ccccc3)N(Cc3ccccc3)C(=O)C3CCCCC3)cc2)cs1` [Example 11], the half-maximal effective concentration (EC50) stood at 8 µM in the experiment with HCMV (strain AD169) [1] (setting [6]) and 1.4 µM in the experiment with HCMV (strain AD169) [2] (setting [6]). This molecule came in with a half-maximal inhibitory concentration (IC50) against HSV-1 helicase-primase (Group 1 Table 5 entries) of 0.4 µM.

As to `CC(C)(C)NC(=O)Nc1ccc(-c2csc(N)n2)cc1` [Example 12], the EC50 in the experiment on HCMV (strain AD169) [1] (setting [4]) was above 32 µM; in the experiment on HCMV (strain AD169) [2] (setting [4]), 6 µM. This molecule also showed a 50% inhibitory concentration (IC50) at HSV-1 helicase-primase (Group 2 Table 1 entries) of 20 µM.

Regarding `CN(CCc1ccccn1)C(=O)Nc1ccc(-c2csc(NC(=O)OC(C)(C)C)n2)cc1` [Example 14], the 50% effective concentration (EC50) in the experiment with HCMV (strain AD169) [1] (setting [4]) came out at 2 µM; with HCMV (strain AD169) [2] (setting [4]), 1.5 µM. At HSV-1 helicase-primase (Group 2 Table 1 entries), this molecule returned a concentration for half-maximal inhibition (IC50) above 100 µM.

In the case of `CCCCN(CCCC)C(=O)Nc1ccc(-c2csc(NC(=O)OC(C)(C)C)n2)cc1` [Example 15], the results for the EC50 in the experiment on HCMV (strain AD169) [1] (setting [4]) and in the experiment on HCMV (strain AD169) [2] (setting [4]) were 1.1 µM and 1 µM, respectively. The molecule further displayed an IC50 at HSV-1 helicase-primase (Group 2 Table 1 entries) above 100 µM.

Consider `CC(C)(C)CC(=O)N[C@@H](Cc1ccccc1)C(=O)Nc1ccc(-c2csc(N)n2)cc1` [Example 19], for which the values for the EC50 in the experiment with HCMV (strain AD169) [1] (setting [6]) and with HCMV (strain AD169) [2] (setting [6]) were 21 µM and 3.8 µM, respectively. The molecule further had an IC50 on HSV-1 helicase-primase (Group 1 Table 5 entries) of 0.051 µM.

As for `Nc1nc(-c2ccc(NC(=O)[C@H](Cc3ccccc3)NS(=O)(=O)N3CCOCC3)cc2)cs1` [Example 25], the results for the EC50 in the experiment on HCMV (strain AD169) [1] (setting [6]) and in the experiment with HCMV (strain AD169) [2] (setting [6]) were 55 µM and 0.6 µM, respectively. This molecule showed a 50% inhibitory concentration (IC50) against HSV-1 helicase-primase (Group 1 Table 5 entries) of 0.17 µM.
